The text below walks through data of ChEMBL document CHEMBL1122477, “Neuroleptic activity and dopamine-uptake inhibition in 1-piperazino-3-phenylindans” (J Med Chem, 1983).

Assay [1] deals with Rattus norvegicus. In words: Tested orally in rats for antagonism of stereotypies induced by amphetamine. The class given is functional.
Assay [2] concerns the target T1, Sodium-dependent serotonin transporter (Rattus norvegicus, UniProt P31652).
For assay [3], the species on record is Mus musculus.
Description: (§1) Compound (administered intraperitoneally) was assessed for neuroleptic activity to antagonize methyl phenidate induced stereotypes in mice
The target of assay [4] is Adrenergic receptor beta (Rattus norvegicus, UniProt P18090+P10608+P26255).
Description: (§2) Effect on synaptosomal uptake inhibition of Noradrenaline (NA)
For assay [5], the species on record is Rattus norvegicus. As to the kind of experiment: animal or person. The note with it: po.
Description: (§3) Ability to induce catalepsy in rats perorally, an effect normally related to clinical extrapyramidal side effects
For assay [6], the species on record is Rattus norvegicus.
Description: as §3
Assay [7] concerns the target Sodium-dependent dopamine transporter (Rattus norvegicus, UniProt P23977).
Description: Effect on synaptosomal uptake inhibition of Dopamine transporter
Assay [8] addresses T1, Sodium-dependent serotonin transporter. In words: Effect on synaptosomal uptake inhibition of 5-hydroxytryptamine (5-HT). In kind it is functional.
Assay [9] is filed under the species Mus musculus. In words: Compound was assessed for thymoleptic activity by its ability to antagonize tetrabenazine ptosis in mice. The class given is functional.
Assay [10] addresses Norepinephrine transporter (Rattus norvegicus, UniProt Q9WTR4).
Description: as §2
The species entered for assay [11] is Mus musculus. As to the kind of experiment: Assessed for thymoleptic activity by its ability to antagonize tetrabenazine ptosis in mice. The class given is functional.
The target of assay [12] is Dopamine receptor.
Description: Effect on synaptosomal uptake inhibition of Dopamine receptor
For assay [13], the species on record is Mus musculus. In words: animal or person. The conditions noted are these: ip.
Description: as §1
Assay [14] relates to Rattus norvegicus. In words: Compound was tested orally (po) in rats for antagonism of stereotypies induced by amphetamine; value ranges from 2.5-4.7. In kind it is functional.
The subject of assay [15] is Rattus norvegicus. In words: Compound was tested orally (po) in rats for its ability to induce catalepsy, an effect normally related to clinical extrapyramidal side effects;value ranges from 1.3-3.4. In kind it is functional.
[16] abbreviates: Rattus norvegicus, po, read-out: ED50.

Sequence of Sodium-dependent dopamine transporter (P23977 whole entry): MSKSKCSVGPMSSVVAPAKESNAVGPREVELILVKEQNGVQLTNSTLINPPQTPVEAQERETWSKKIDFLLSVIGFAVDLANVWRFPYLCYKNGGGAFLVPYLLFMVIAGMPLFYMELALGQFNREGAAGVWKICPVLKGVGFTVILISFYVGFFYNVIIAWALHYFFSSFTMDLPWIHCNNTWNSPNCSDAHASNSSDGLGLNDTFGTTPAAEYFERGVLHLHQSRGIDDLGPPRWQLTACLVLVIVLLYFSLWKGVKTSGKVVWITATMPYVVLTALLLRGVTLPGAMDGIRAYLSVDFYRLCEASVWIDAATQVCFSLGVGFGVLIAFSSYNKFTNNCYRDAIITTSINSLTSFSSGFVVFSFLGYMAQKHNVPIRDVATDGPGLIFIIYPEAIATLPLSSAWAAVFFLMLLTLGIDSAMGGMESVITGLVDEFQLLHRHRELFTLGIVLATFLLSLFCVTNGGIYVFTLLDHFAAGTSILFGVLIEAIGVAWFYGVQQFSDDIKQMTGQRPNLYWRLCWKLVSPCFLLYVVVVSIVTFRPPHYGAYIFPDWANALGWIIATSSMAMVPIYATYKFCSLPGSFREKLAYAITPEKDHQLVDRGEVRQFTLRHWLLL
Sequence of Norepinephrine transporter (Q9WTR4 whole entry): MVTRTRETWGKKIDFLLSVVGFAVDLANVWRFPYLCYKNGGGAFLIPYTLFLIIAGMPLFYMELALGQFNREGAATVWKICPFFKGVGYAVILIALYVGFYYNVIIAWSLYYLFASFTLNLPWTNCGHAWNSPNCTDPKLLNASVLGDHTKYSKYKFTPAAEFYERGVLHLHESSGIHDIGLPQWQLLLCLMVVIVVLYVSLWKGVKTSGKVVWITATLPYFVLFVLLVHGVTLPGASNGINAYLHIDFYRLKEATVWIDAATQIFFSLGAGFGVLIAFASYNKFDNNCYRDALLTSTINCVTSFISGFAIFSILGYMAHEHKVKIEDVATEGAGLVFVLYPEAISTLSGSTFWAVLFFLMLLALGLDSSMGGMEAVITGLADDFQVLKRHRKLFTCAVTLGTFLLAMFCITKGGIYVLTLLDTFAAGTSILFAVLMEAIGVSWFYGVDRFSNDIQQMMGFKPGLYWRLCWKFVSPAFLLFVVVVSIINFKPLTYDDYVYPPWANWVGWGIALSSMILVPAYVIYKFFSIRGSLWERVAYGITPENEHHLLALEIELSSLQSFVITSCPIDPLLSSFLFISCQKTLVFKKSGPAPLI
T1 sequence (P31652 whole entry): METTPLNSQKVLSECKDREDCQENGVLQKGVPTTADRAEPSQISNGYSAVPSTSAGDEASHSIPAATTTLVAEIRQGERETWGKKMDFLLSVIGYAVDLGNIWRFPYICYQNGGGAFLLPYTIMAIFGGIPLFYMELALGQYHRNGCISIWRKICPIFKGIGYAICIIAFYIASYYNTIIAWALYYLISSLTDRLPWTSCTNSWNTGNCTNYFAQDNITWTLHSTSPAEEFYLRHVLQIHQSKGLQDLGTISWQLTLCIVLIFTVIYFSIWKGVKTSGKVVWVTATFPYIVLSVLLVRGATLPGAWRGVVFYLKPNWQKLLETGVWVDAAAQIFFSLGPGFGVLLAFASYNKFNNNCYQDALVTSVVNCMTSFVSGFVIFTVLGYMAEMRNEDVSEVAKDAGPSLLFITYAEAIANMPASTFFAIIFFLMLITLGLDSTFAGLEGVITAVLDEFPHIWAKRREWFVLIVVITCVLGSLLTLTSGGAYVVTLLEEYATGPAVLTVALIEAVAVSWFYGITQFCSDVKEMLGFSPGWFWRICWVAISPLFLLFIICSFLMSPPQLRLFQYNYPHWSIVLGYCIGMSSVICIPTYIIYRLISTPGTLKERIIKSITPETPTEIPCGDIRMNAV

On to `Cl.Cl.OCCN1CCN(C2CC(c3ccc(F)cc3)c3ccc(F)cc32)CC1` (stereo not drawn), for which the ED50 in assay [1] is 14 µM/kg; in [3], 7 µM/kg; in assay [5], 184 µmol/kg. For the same compound, the IC50 (usually the concentration at which inhibition is half-maximal) is 2300 nM in assay [2] and 150 nM in assay [4].
With `OCCN1CCN(C2CC(c3ccc(F)cc3)c3ccc(F)cc32)CC1` (stereo not drawn), the ED50 in [1] and in assay [3] was greater than 112 µM/kg in each case. Besides, the IC50 was 9700 nM in assay [2] and 140 nM in [4].
Take `OCC(O)CN1CCN(C2CC(c3ccc(F)cc3)c3ccc(F)cc32)CC1` (stereo not drawn): the ED50 is greater than 51 µM/kg in assay [3] and greater than 102 µM/kg in [6].
With `Cl.Cl.OCCCCN1CCN(C2CC(c3ccc(F)cc3)c3ccc(F)cc32)CC1` (cis isomer), the concentration for half-maximal inhibition (IC50) in [2] stood at 1900 nM; in assay [7], 9 nM; in assay [4], 30 nM. The same compound registered an ED50 in assay [3] of 54 µM/kg.
`Cl.Cl.OCCN1CCN(C2CC(c3ccc(F)cc3)c3ccc(C(F)(F)F)cc32)CC1` (cis isomer): the IC50 in [7] was found to be 93 nM. Moreover, the ED50 is greater than 80 µM/kg in assay [3] and greater than 166 µM/kg in assay [6].
On to `CN(C)C[C@@H]1C2CCC(CC2)[C@@H]1c1ccc(Cl)c(Cl)c1` (relative stereo), for which the values for the IC50 in [8] and in assay [10] were 51 nM and 5.4 nM, respectively. This compound also had an ED50 in assay [9] of 43 µmol/kg.
For `CN1CCN(C2CC(c3ccc(Cl)c(Cl)c3)c3ccccc32)CC1.Cl.Cl` (single isomer, unassigned; 96), the IC50 in [8] was 230 nM; in [10], 7.8 nM; in assay [12] it was 10 nM. In addition, the ED50 in [11] is 26 µM/kg.
Turning to `CN1CCN(C2CC(c3ccc(Cl)c(Cl)c3)c3ccccc32)CC1.Cl.Cl` (single isomer, unassigned; 98), the IC50 in assay [8] was determined as 2300 nM; in [10], 910 nM; in assay [12], 1700 nM. In addition, in assay [9], the ED50 was greater than 89 µmol/kg.
Regarding `CN1CCN(C2CC(c3ccc(Cl)c(Cl)c3)c3ccccc32)CC1.Cl.Cl` (single isomer, unassigned; 99), the 50% inhibitory concentration (IC50) was 530 nM in assay [8], 2.5 nM in [10] and 2.3 nM in assay [12]. In assay [11], the ED50 amounted to 69 µM/kg.
Turning to `CN1CCN(C2CC(c3ccc(F)cc3)c3ccc(F)cc32)CC1.Cl.Cl` (single isomer, unassigned; (+)), the ED50 came to 15 µM/kg in assay [1], 2.5 µM/kg in assay [3] and 41 µM/kg in [6]. Moreover, the IC50 in assay [2] was 4000 nM; in [7] it was 1800 nM.
Taken in the same sequence, the figures for `CN1CCN(C2CC(c3ccc(F)cc3)c3ccc(F)cc32)CC1.Cl.Cl` (stereo in doubt; 53) were 37 µM/kg, 11 µM/kg, 202 µM/kg, 2000 nM and 180 nM.
Taken in the same sequence, the figures for `CN1CCN(C2CC(c3ccc(F)cc3)c3ccc(F)cc32)CC1.Cl.Cl` (stereo in doubt; 55) were greater than 200 µM/kg, 42 µM/kg, greater than 790 µM/kg, 630 nM and 88 nM.
Take `CN1CCN(C2CC(c3ccc(F)cc3)c3ccc(F)cc32)CC1.Cl.Cl` (stereo in doubt; 56): the ED50 in assay [1] and in assay [3] was greater than 95 µM/kg throughout. Besides, the IC50 turned out to be 6100 nM in [2] and 110 nM in [7].
As for `Fc1ccc(C2CC(N3CCN(C/C=C/c4ccccc4)CC3)c3cc(F)ccc32)cc1` (stereo in doubt; 63), the figures for the IC50 in [2] and in [7] were 160 nM and 340 nM, respectively. Moreover, the ED50 in assay [13] stood at 57 µmol/kg.
For `Cl.Cl.Fc1ccc(C2CC(N3CCN(C/C=C/c4ccccc4)CC3)c3cc(F)ccc32)cc1` (stereo in doubt; 64), the concentration for half-maximal inhibition (IC50) in [2] amounted to 400 nM; in assay [7], 210 nM. Also, in assay [3], the ED50 is greater than 79 µM/kg.
`CN1CCN(C2CC(c3ccc(Cl)c(Cl)c3)c3ccccc32)CC1.Cl.Cl` (stereo in doubt; 97): the IC50 in assay [8] was 630 nM; in assay [10], 7.7 nM; in [12] it was 4.4 nM. Further, the ED50 in assay [11] stood at 100 µM/kg.
For the compound `Cl.Cl.OCCCCN1CCN(C2CC(c3ccc(F)cc3)c3ccc(F)cc32)CC1` (trans isomer), the ED50 came out at 7.7 µmol/kg in assay [1] (setting [16]), 6.5 µM/kg in assay [3] and 47 µmol/kg in assay [5]. The half-maximal inhibitory concentration (IC50) in assay [2] was 610 nM; in assay [7] it was 25 nM; in [4] it was 19 nM.
As to `Cl.Cl.OCC(O)CN1CCN(C2CC(c3ccc(F)cc3)c3ccc(F)cc32)CC1` (trans isomer), the ED50 is 33 µmol/kg in [1] (setting [16]), 2.9 µM/kg in [3] and greater than 280 µM/kg in [6].
Take `OCCN1CCN(C2CC(c3ccc(F)cc3)c3ccc(C(F)(F)F)cc32)CC1` (trans isomer): the ED50 was determined as 0.22 µmol/kg in assay [1] (setting [16]), 0.07 µM/kg in [3] and 0.27 µM/kg in assay [6]. Further, the IC50 was found to be 7000 nM in assay [2], 520 nM in assay [7] and 660 nM in assay [4].
On to `CN1CCN(C2CC(c3ccc(Cl)c(Cl)c3)c3ccccc32)CC1.Cl.Cl` (trans isomer), for which the IC50 worked out at 200 nM in assay [8], 32 nM in assay [10] and 11 nM in [12]. This compound yielded an ED50 in assay [11] of 48 µM/kg.
For the compound `Cl.Cl.OCCN1CCN(C2CC(c3ccc(Cl)c(Cl)c3)c3ccccc32)CC1` (trans isomer), the IC50 in assay [8] was found to be 210 nM; in assay [10], 8.2 nM; in assay [12], 2.8 nM. This compound also gave an ED50 in [11] of 45 µM/kg.
Regarding `OCCN1CCN(CC/C=C2/c3ccccc3Sc3ccc(C(F)(F)F)cc32)CC1` [Z-FLUPENTIXOL], the ED50 in assay [14] is 3.5 µmol/kg; in assay [15], 2.1 µmol/kg; in [13], 0.14 µmol/kg.
